Results reported in PMC11892739, “Site-specific molecular glues for the 14-3-3/Tau pS214 protein–protein interaction via reversible covalent imine tethering” (RSC Medicinal Chemistry, 2025).
Entries after “also recorded” stand apart in the source; their conditions may differ.

Tested on: 14-3-3γ/Tau pS214 interaction
Experiment: Fluorescence anisotropy 14-3-3γ titration with compound and monovalent Tau pS214 peptide
Format: binding
Conditions: SF250μM with 14-3-3γ, 250 μM compound
Experimental: FA assays in which 14-3-3γ was titrated to a constant concentration of compound (250 μM) in the presence of the distinct monovalent Tau peptide (10 nM) were performed.
The determined stabilization factors are concentration-dependent (here 250 μM of compound) and might differ based on assay design. […] The app. α-factors of these compounds for both 14-3-3/Tau complexes were determined by 14-3-3γ titrations in the presence of varied concentrations of the particular compound (Fig. 5d and e). Both compounds reached saturation for both 14-3-3γ/Tau complexes enabling accurate determination of the α-factor. The app. α-factors of aldehydes 1 and 18 were plotted for both 14-3-3γ/Tau complexes to investigate phospho-binding site selective cooperativity (Fig. 5f and h). To do so, the stabilization factors at a given compound concentration were plotted against the compound concentration, leading to the determination of the app. α-factors. […]
chromatography (HisTrap high performance cartridges, Cytiva). Typically two 5 mL columns were used for a 2 L culture in which the lysate was loaded on the column, washed with 10 CV wash buffer (50 mM Hepes, pH 8.0, 300 mM NaCl, 25 mM imidazole, 2 mM βME), and eluted with several fractions (2-4 CV) of elution buffer (50 mM Hepes, pH 8.0, 300 mM NaCl, 250 mM imidazole, 2 mM βME). Fractions containing the 14-3-3 protein were combined and dialyzed into 25 mM HEPES pH 8.0, 200 mM NaCl, 10 mM MgCl2, 2 mM βME, followed by dialysis into 25 mM HEPES, 100 mM NaCl, 10 mM MgCl2, 500 μM TCEP (adjusted to pH 8.0). Dialyzed protein was concentrated to ∼40 mg/mL, analyzed by Q -Tof LC/MS, and aliquots were flash -frozen for storage at −80 °C. […]
0.1% (v/v) Tween20, 0.1% (w/v) BSA). Dilution series were made in polystyrene low -volume 384 -well plates (Corning #4514, Black Round Bottom). Measurements were performed directly after plate preparation, using a Tecan SPARK plate reader at room temperature ( λex: 485±20 nm; λem: 535±25 nm; mirror: automatic; flashes: 30; settle time: 1 ms; gain: optimal; Z -position: calculated from well). Wells containing only fluorescein labelled peptide were used to set as G -factor calibrated from these wells. All data were analyzed using GraphPad Prism (10.0.1) and fitted with a four -parameter logistic model (4PL) to determine binding affinities (dissociation constant, KD). All data shown is background corrected for the signal without 14 -3-3ζ and the mean and standard deviation of technical duplicate is plotted, assay performed in a scientific duplicate for hit compounds.
Fluorescence Anisotropy – 14-3-3 titrations in the presence of compound To characterize the affinity of the Tau peptides for 14-3-3 in the presence of compound, 14-3-3ζ or γ was titrated in a 2-fold dilution series starting at 400 (for the 14-3-3ζ titrations to Tau pS2) or 800 (for the 14-3-3γ titrations to Tau pS214 or pS324) µM. 14-3-3 was added to 10 nM of fluorescein-labeled peptide (Tau pS2, Tau pS214 or Tau pS324) in the presence of 250 µM compound (1% DMSO). The assays were performed in a similar way as described above. Data shown is the average and standard deviation of a technical duplicate, top plateau corrected where needed, assay performed in a scientific duplicate. […]
The peptide screen was performed in a similar way as the 14-3-3ζ titration in the precence of compound.
14-3-3ζ was titrated in a 2-fold dilution series (starting at 400 µM 14-3-3ζ) to 100 nM of fluorescein-labeled peptides and 250 µM compound 18 (1% DMSO) in FA buffer (10 mM HEPES pH 7.4, 150 mM […]
Data shown is the average of a scientific triplicate. […]
DSF was performed using 40 µl samples containing 2.5 µM 14 -3-3ζ, 25 µM Tau peptide (Tau pS2, Tau pS214 or Tau pS324), […] (1% DMSO) and 5x ProteoOrange (Lumiprobe, 5000x stock in DMSO) in 10 mM HEPES, 150 mM NaCl, 50 µM TCEP (pH 7.4). The samples were heated from 35 °C to 79°C at a rate of 0.3 °C per 15 s in a C FX96 Touch Real-Time PCR Detection System (Bio -Rad). Fluorescence […]

Compound	phospho-binding site preference Tau pS214 versus Tau pS324 (in words)
O=Cc1ccc(-n2ccnc2-c2ccccc2)cc1Br [Compound 1]	did not show a difference in stabilization
Cc1cccc(-c2nccn2-c2ccc(C=O)c(Br)c2)c1 [Compound 6]	no significant preference
Cc1ccc(-c2nccn2-c2ccc(C=O)c(Br)c2)cc1 [Compound 11]	significantly greater extent
O=Cc1ccc(-n2ccnc2-c2ccc(F)cc2)cc1Br [Compound 13]	no preference for Tau pS214
O=Cc1ccc(-n2ccnc2-c2ccc(Cl)cc2)cc1Br [Compound 14]	significantly greater extent; also recorded: preference for Tau pS214
O=Cc1ccc(-n2ccnc2-c2ccc(I)cc2)cc1Br [Compound 15]	significantly greater extent; also recorded: preference for Tau pS214
CCc1ccc(-c2nccn2-c2ccc(C=O)c(Br)c2)cc1 [Compound 18]	significantly greater extent; also recorded: highest stabilization selectivity for the 14-3-3γ/Tau pS214 complex
N#Cc1ccc(-c2nccn2-c2ccc(C=O)c(Br)c2)cc1 [Compound 22]	preference for Tau pS214
